Assay results from patent US7943654B2, “1H-thieno[2,3-c]pyrazole compounds useful as kinase inhibitors” (Nerviano Medical Sciences S.R.L., priority 2005, dated 2011).

Columns and labels:
Aurora-2 = target: T1, Aurora-2 (Homo sapiens, UniProt O14965); assay: Inhibition assay of Aurora-2 activity (SPA); type: biochemical; details: 10 μM ATP, 60 minutes at room temperature
T1 sequence (O14965 1-403): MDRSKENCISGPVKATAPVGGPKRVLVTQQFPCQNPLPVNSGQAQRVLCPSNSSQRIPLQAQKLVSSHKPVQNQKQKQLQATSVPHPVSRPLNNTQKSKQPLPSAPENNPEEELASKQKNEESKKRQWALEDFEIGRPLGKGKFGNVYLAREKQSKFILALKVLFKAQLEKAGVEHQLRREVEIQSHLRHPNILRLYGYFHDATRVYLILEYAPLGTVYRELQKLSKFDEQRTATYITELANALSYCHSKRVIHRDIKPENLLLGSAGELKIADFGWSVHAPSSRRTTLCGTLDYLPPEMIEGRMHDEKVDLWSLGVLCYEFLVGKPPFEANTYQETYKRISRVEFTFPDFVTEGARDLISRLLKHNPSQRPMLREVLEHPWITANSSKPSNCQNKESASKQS
Experimental: The inhibiting activity and the potency of selected compounds is determined through a method of assay based on the use of the SPA technology (Amersham Pharmacia Biotech).
The assay consists of the transfer of radioactivity labelled phosphate moiety by the kinase to a biotinylated substrate. The resulting 33P-labelled biotinylated product is allowed to bind to streptavidin-coated SPA beads (biotin capacity 130 pmol/mg), and light emitted was measured in a scintillation counter.
Inhibition Assay of Aurora-2 Activity
Kinase reaction: 8 μM biotinylated peptide (4 repeats of LRRWSLG) (SEQ ID NO:2), 10 μM ATP (0.5 uCiP^33 γ-ATP), 7.5 ng Aurora 2, inhibitor in a final volume of 30 μl buffer (HEPES 50 mM pH 7.0, MgCl2 10 mM, 1 mM DTT, 0.2 mg/mL BSA, 3 μM orthovanadate) were added to each well of a 96 U bottom well plate. After 60 minutes at room temperature incubation, reaction was stopped and biotinylated peptide captured by adding 100 μl of bead suspension.
Stratification: 100 μl of CsCl 5 M were added to each well and let stand 4 hour before radioactivity was counted in the Top-Count instrument.
IC50 determination: inhibitors were tested at different concentrations ranging from 0.0015 to 10 μM. […]

[1] = system: human colon cancer cell line HCT-116; assay: In vitro cell proliferation assay; type: cell-based; details: HCT-116, 72 hours of treatment, cell count, read-out: Cell Antiproliferation IC50
Experimental: The compounds of the invention were further tested, in vitro to assess the anti-proliferative effect onto cell cultures.
In Vitro Cell Proliferation Assay
The human colon cancer cell line HCT-116 was seeded at 5000 cells/cm^2 in 24 wells plate (Costar) using F12 medium (Gibco) supplemented with 10% FCS (EuroClone, Italy) 2 mM L-glutamine and 1% penicillin/streptomycin and maintained at 37° C., 5% CO2 and 96% relative humidity. The following day, plates were treated in duplicates with 5 ul of an appropriate dilution of compounds starting from a 10 mM stock in DMSO. Two untreated control wells were included in each plate. After 72 hours of treatment, medium was withdrawn and cells detached from each well using 0.5 mL of 0.05% (w/v) Trypsin, 0.02% (w/v) EDTA (Gibco). Samples were diluted with 9.5 mL of Isoton (Coulter) and counted using a Multisizer 3 cell counter (Beckman Coulter). Data were evaluated as percent of the control wells: % of CTR=(Treated−Blank)/(Control−Blank).
IC50 values were calculated by LSW/Data Analysis using Microsoft Excel sigmoidal curve fitting.

Compound	IC50 (Aurora-2)	IC50 [1]
CC(C)(NC(=O)c1cc2c(NC(=O)c3ccccc3NC(=O)c3ccc[nH]3)n[nH]c2s1)c1ccccc1 [Compound (1), 3-{2-[(1H-pyrrole-2-carbonyl)-amino]-benzoylamino}-1H-thieno[2,3-c]pyrazole-5-carboxylic acid (1-methyl-1-phenyl-ethyl)-amide]	6 nM	7 nM
CC(C)(NC(=O)c1cc2c(NC(=O)c3ccccc3NC(=O)c3ccc[nH]3)n[nH]c2s1)c1ccccc1F [Compound (2), 3-{2-[(1H-pyrrole-2-carbonyl)-amino]-benzoylamino}-1H-thieno[2,3-c]pyrazole-5-carboxylic acid [1-(2-fluoro-phenyl)-1-methyl-ethyl]-amide]	12 nM	54 nM
